According to patent US12016860B2, “Combination therapies with Cbl-b inhibitor compounds” (Nurix Therapeutics, Inc., priority 2021, dated 2024):

Columns and labels:
[1] = system: 4T1 tumors; experiment: 4T1 metastatic breast carcinoma survival model with primary tumor resection; format: in vivo, mice
From the text: Another in vivo study evaluated the ability of compound 23 treatment, started before the primary tumor resection, to eradicate 4T1 breast carcinoma metastatic disease. The 4T1 triple negative mammary carcinoma is a transplantable tumor cell line that is highly tumorigenic and invasive and, unlike most tumor models, spontaneously metastasizes from a primary tumor growing in the mammary gland to multiple distant sites including lymph nodes, blood, liver, lung, brain, and bone. Tumor cells are easily transplanted into the mammary glands so that the primary tumor grows in the anatomically relevant site. The progressive spread of 4T1 metastases to other organs is very similar to that of human mammary cancer. Animals die from disseminated metastatic disease regardless of resection of the primary tumor (Pulaski et al., 2000, Current Protocols in Immunology 39(1):20.2.1-20.2.16). […] Beginning on Day 7, tumor volumes were measured twice weekly until they reached a mean tumor volume of 145 mm^3 when the primary tumors were resected on Day 14 and 15 (dotted line). Median survival time were calculated for each group and body weights were monitored until the end of the study on Day 140. Body weights were measured twice weekly then once weekly starting Day 47. […] Statistical significance of differences in conditional survival between groups was evaluated using the Log-rank (Mantel-Cox) test. […] Median survival is reported as undefined for the compound 23 group, as survival exceeds 50% at Day 140.

[2] = system: CT26 tumors; experiment: nCounter Mouse PanCancer Immune Profiling of CT26 tumors from treated mice; format: in vivo
From the text: In this example, the gene expression changes induced in tumors from mice treated with compound 23 studies were investigated. To perform this assessment, the nCounter PanCancer Immune Profiling Panel was used, which is a multiplexed gene expression panel developed by NanoString Technologies that measures expression of 770 immune and cancer related genes (Eastel et al., 2019, Expert Review of Molecular Diagnostics, 19(7):591-598). This technology is a unique gene expression tool that covers many important features of the immune response in the tumor microenvironment and was used to facilitate the understanding of immune related changes in tumors treated with compound 23.
In FIG. 4A, CT26 tumors were harvested after 4 doses and after 19 doses of compound 23 or vehicle and gene expression was directly measured using the nCounter Mouse PanCancer Immune Profiling Panel. Analysis was performed using the nSolver 4.0 and the nCounter Advanced Analysis software comparing gene expression in compound 23 to vehicle treated tumors. […] Statistical significance of differences in mean cell type scores between compound 23 and vehicle treated groups was evaluated using Mann-Whitney test (*P≤0.05, **P≤0.01, and ***P≤0.001).
(§1) In FIG. 4B, CT26 tumors were harvested after 4 treatment doses and gene expression was directly measured using the nCounter Mouse PanCancer Immune Profiling Panel. Analysis was performed using the nSolver 4.0 and the nCounter Advanced Analysis software comparing gene expression in compound 23 to vehicle treated tumors. As indicated in the titles above each panel, scatter plots of individual Pathway Signature Scores of vehicle and compound 23 treated tumors are shown. Statistical significance of differences in Pathway Signature Scores between compound 23 and vehicle treated groups was evaluated using Mann-Whitney test (*P≤0.05, **P≤0.01, and ***P≤0.001).
as §1, with “FIG. 4C,” for “FIG. 4B,”, “after 19” for “after 4”

[3] = system: CT26 tumors; experiment: CT26 tumor model with depleting antibodies for CD4+, CD8+ or NK cells; format: in vivo, mice; details: 30 mg/kg PO QD Day 9 to 25
Protocol: Tumor volume at Day 25 is indicated. CD8+ T-cell or NK cell depletion abrogates compound 23 activity. Stats were calculated with Mann-Whitney (Vehicle vs. compound 23) or one-way ANOVA with Dunn's multiple comparisons test (compound 23 vs. Depletion groups); (*P≤0.05, **P≤0.01, ****P≤0.0001). The efficacy of compound 23 on tumors is CD8+ T function and on NK cell function.

[4] = system: CT26 tumors; experiment: CT26 model, combination with anti-PD-1 antibody; format: in vivo, mice
Protocol: (§2) This example provides assays and results for treating tumor models in vivo with combinations of Cbl-b compounds and anti-PD1 antibodies as described herein. The antibody is a mouse anti-PD1 RMP1-14 antibody, useful in mouse in vivo assays as model for administration of human PD-1 axis antagonists for treatment of human cancer.
FIG. 6 provides results in three tumor models. […] Beginning on Day 10, tumor volumes were measured twice weekly.

[5] = system: orthotopic 4T1 tumors; experiment: Orthotopic 4T1 model, combination with anti-PD-1 antibody; format: in vivo, mice
Protocol: as §2
Beginning on Day 9, tumor volumes and body weights were measured twice weekly. […] Statistical significance of differences in the number of colonies between groups was evaluated using Kruskal-Wallis one-way ANOVA with Dunn's multiple comparisons test.

[6] = system: orthotopic 4T1 tumors; experiment: Flow cytometry of tumor and blood CD8+ T-cells in 4T1-tumor-bearing mice; format: in vivo; details: Day 28
[7] = system: CT26 tumors; experiment: Flow cytometry of tumor-infiltrating immune cells in CT26 tumors; format: in vivo, mice
Protocol: CT26 tumors were harvested after 19 doses of compound 23 or vehicle and tumor-infiltrating immune cell density and phenotype was assessed by flow cytometry.

[8] = system: Raji cells; experiment: Raji model in SCID mice with NK cell depletion (anti-asialo-GM1); format: in vivo; details: p<0.0001
Protocol: Three additional groups of mice were treated in the presence of depleting antibodies for NK cells (anti-asialo-GM1).

[9] = system: Raji cells; experiment: Raji human non-Hodgkin's lymphoma model in SCID mice, combination with rituximab
Protocol: Female CB17 mice with severe combined immunodeficiency (SCID) were intravenously (IV) injected in the tail vein with Raji cells on Day 0 and treated from Day 5 to Day 37 by administration of either: vehicle (0.5% methylcellulose, 0.2% Polysorbate 80 in deionized water+1 eq HCl) daily, orally (PO) or compound 23 at 30 mg/kg daily, PO. Anti-CD20 antibody (rituximab) at 20 mg/kg was intraperitoneally (IP) administered on Day 5, 10, and 15, either alone or in combination with compound 23 at 30 mg/kg daily, PO.

[10] = blood of 4T1-tumor-bearing mice

C[C@H]1CCCN(Cc2cc3c(c(C(F)(F)F)c2)CN(c2cccc([C@]4(c5nncn5C)C[C@@H](C)C4)c2)C3=O)C1 [compound 23]
median survival time compared to vehicle control ([1]; 30 mg/kg daily PO Day 8 to 46, primary tumors resected Day 14 and 15): significantly increased
median survival ([1]; 30 mg/kg daily PO, study end Day 140): undefined
anti-tumor activity ([1]; oral administration in mice, metastatic triple negative breast tumor model 4T1): significant anti-tumor activity
T-cell, B cell, NK cell and adaptive immune function pathway scores ([2]; after 4 doses): not significant
gene expression in innate immune signaling pathways (dendritic cell function, macrophage function, chemokine receptors and pathways) ([2]; after 4 doses): significant gene expression changes
cytotoxic cell infiltration score ([2]; after 4 doses, 30 mg/kg daily PO, vs vehicle, P=0.1061): clear trend of increased infiltration
infiltration of tumor infiltrating lymphocytes (TIL) score ([2]; after 4 doses, 30 mg/kg daily PO, vs vehicle, P=0.6679): clear trend of increased infiltration
T-cell infiltration score ([2]; after 4 doses, 30 mg/kg daily PO, vs vehicle, P=0.7551): clear trend of increased infiltration
immune related pathway scores ([2]; after 19 doses): significantly enhanced function
cytotoxic cell infiltration score ([2]; after 19 doses PO, vs vehicle, P=0.0002): significant increases
TIL infiltration score ([2]; after 19 doses PO, vs vehicle, P=0.0044): significant increases
T-cell infiltration score ([2]; after 19 doses PO, vs vehicle, P=0.0098): significant increases
effect of CD8+ T-cell depletion on compound activity (tumor volume at Day 25) [3]: abrogates
effect of NK cell depletion on compound activity (tumor volume at Day 25) ([3]; anti-asialo-GM1): abrogates
interaction with PD-1 antibody blockade [4]: synergizes
TGI ([4]; compared to vehicle controls, compound 23 30 mg/kg daily PO, anti-PD-1 10 mg/kg twice weekly IP): 62%
tumor volume compared to vehicle controls ([4]; compound 23 30 mg/kg daily PO): significantly reduced tumor volume
median survival time ([4]; compound 23 30 mg/kg daily PO, anti-PD-1 10 mg/kg twice weekly IP, controls 27 days): 38 days
interaction with PD-1 antibody blockade [5]: synergizes
metastatic lung tumor burden ([5]; lungs harvested Day 28, single agents vs vehicle, combination vs vehicle or either single agent): reduced metastatic lung tumor burden
primary tumor volume ([5]; single agents vs vehicle, combination vs vehicle or either single agent): significantly smaller primary tumors
frequency of tumor gp70 antigen-specific CD8+ T-cells (AH1 Dextramer+CD8+) ([6]; 4T1 tumors, 30 mg/kg daily PO): increased
frequency of tumor gp70 antigen-specific CD8+ T-cells with exhaustion phenotype (PD-1+ LAG3+) ([6]; 4T1 tumors, 30 mg/kg daily PO): decreased
frequency of circulating CD8+ T-cells with activated phenotype (PD-1+) [6, 10]: increased
frequency of circulating CD8+ T-cells with memory phenotype (CD44+CD27+CD127+) [6, 10]: increased
CD8+ T-cells to Tregs ratio ([7]; 19 doses): increased
CD8+ effector T-cells (PD1+) to Tregs ratio ([7]; 19 doses): increased
frequency of CD8+ T-cells that express the activation marker CD29 ([7]; 19 doses): increased
frequency of total CD3+ T-cells as a percentage of CD45+ leukocytes ([7]; 19 doses): increased
frequency of total CD8+ T-cells as a percentage of CD45+ leukocytes ([7]; 19 doses): increased
frequency of tumor-infiltrating NK cells with cytotoxic phenotype (Granzyme+) ([7]; 19 doses): increased
number of total CD8+ T-cells per gram of tumor ([7]; 19 doses): increased
number of tumor-infiltrating leukocytes (TIL) per gram of tumor ([7]; 19 doses 30 mg/kg daily PO): increased
effect of NK cell depletion on activity (survival) [8]: abrogates
survival compared to untreated mice ([9]; compound 23 30 mg/kg daily PO, rituximab 20 mg/kg IP Day 5, 10, 15, p<0.0001): significantly higher
survival compared to mice treated with the combination of compound 23 and rituximab ([9]; p<0.0001): significantly lower
